We go through 14 compounds from ChEMBL document CHEMBL5236631, “Design, synthesis and biological evaluation of novel 3,4-dihydro-2H-[1,4]oxazino [2,3-f]quinazolin derivatives as EGFR-TKIs” (Bioorg Med Chem Lett, 2023).

pIC50: −log10 of the molar value. A value given as a limit tells only on which side of the number the result lay.

A word on the pIC50: it is the negative decadic logarithm of the IC50, by convention in mol/L. By CC50 is commonly meant the concentration at which the toxic effect on the cells reaches its halfway point.

In one data set the test system is NCI-H1975. Kind of data set: Antiproliferative activity against human NCI-H1975 cells harboring T790M mutation assessed as inhibition of cell growth. The class given is functional, cell-based.
The next data set relates to NCI-H1563. Kind of data set: Antiproliferative activity against human NCI-H1563 cells assessed as inhibition of cell growth. Format: functional, cell-based.
The target in data set [1] is Epidermal growth factor receptor (Homo sapiens, UniProt P00533). Kind of data set: Inhibition of wild type EGFR (unknown origin) autophosphorylation by Kinase-Glo luminescent assay. (Kinase-Glo measures the ATP left after a reaction by luminescence.)
Data set [2] is described as follows: Cytotoxicity against human 16HBE14o- cells assessed as inhibition of cell growth by MTT assay. Format: toxicity, cell-based. A general note: Formazan colour is commonly taken as a measure of viable cells.

Epidermal growth factor receptor, sequence (P00533 whole entry): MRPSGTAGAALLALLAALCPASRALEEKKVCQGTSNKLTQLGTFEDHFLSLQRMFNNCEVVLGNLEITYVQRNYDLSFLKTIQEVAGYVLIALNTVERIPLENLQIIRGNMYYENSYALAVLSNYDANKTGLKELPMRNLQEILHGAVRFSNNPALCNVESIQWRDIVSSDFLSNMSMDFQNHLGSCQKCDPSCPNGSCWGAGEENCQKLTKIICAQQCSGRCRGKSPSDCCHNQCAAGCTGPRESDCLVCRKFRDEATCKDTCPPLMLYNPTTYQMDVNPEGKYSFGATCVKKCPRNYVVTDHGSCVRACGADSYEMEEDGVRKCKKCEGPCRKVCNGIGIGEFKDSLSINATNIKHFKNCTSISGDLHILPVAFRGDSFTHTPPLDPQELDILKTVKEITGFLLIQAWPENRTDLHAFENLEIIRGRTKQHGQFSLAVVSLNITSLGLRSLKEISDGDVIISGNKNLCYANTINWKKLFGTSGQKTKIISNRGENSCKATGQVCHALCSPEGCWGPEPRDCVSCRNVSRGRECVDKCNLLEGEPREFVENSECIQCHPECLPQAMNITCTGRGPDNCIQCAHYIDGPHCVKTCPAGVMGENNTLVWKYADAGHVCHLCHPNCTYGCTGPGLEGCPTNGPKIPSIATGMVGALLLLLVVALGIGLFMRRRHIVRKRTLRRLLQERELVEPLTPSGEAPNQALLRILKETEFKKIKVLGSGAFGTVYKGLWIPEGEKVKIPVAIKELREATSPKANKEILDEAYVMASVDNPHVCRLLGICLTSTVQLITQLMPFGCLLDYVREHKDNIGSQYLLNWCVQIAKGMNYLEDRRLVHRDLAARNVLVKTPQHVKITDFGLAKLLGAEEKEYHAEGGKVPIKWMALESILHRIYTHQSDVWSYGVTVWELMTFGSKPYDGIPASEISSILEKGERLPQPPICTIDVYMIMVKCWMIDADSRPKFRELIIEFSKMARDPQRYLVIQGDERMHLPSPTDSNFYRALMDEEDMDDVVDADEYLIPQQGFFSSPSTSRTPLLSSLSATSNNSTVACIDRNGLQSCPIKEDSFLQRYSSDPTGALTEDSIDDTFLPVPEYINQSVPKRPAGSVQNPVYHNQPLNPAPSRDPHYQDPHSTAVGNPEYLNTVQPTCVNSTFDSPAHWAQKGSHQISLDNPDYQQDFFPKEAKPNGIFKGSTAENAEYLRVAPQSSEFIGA

For the compound `CC(=O)N1CCOc2c1ccc1ncnc(Nc3cccc(C(F)(F)F)c3)c21`, the results for the negative-log IC50 (pIC50) (in the data set on NCI-H1975; with NCI-H1563; in data set [1]) were less than 4.40, less than 4.40 and 6.27, respectively.
As to `Fc1ccc(Nc2ncnc3ccc4c(c23)OCCN4)cc1Cl`, the CC50 in data set [2] turned out to be 0.13 µM. For the same compound, the results for the pIC50 (in the data set on NCI-H1975; with NCI-H1563; in data set [1]) were 5.80, greater than 5.90 and 7.06, respectively.
Consider `CC(=O)N1CCOc2c1ccc1ncnc(Nc3ccc(F)c(Cl)c3)c21`, for which the pIC50 in the data set with NCI-H1975 is less than 4.40; in the data set on NCI-H1563, less than 4.40; in data set [1], 7.33.
With `CCC(=O)N1CCOc2c1ccc1ncnc(Nc3cccc(Br)c3)c21`, in data set [2], the CC50 came out at 1.25 µM. Further, the results for the pIC50 (in the data set with NCI-H1975; in the data set on NCI-H1563; in data set [1]) were 5.44, 4.61 and 7.15, respectively.
In the case of `CCC(=O)N1CCOc2c1ccc1ncnc(Nc3cccc(C(F)(F)F)c3)c21`, the negative-log IC50 (pIC50) in the data set with NCI-H1975 was less than 4.40; in the data set with NCI-H1563, less than 4.40; in data set [1], 6.08.
Consider `CC(=O)N1CCOc2c1ccc1ncnc(Nc3cccc(Br)c3)c21`, for which the CC50 in data set [2] was determined as 1.4 µM. For the same compound, the negative logarithm of the IC50 (pIC50) with NCI-H1975 is less than 4.40; in the data set on NCI-H1563, less than 4.40; in data set [1], 7.34.
As to `CN1CCN(CCC(=O)N2CCOc3c2ccc2ncnc(Nc4cccc(Br)c4)c32)CC1`, the CC50 in data set [2] worked out at 1.35 µM. The pIC50 was 5.38 in the data set on NCI-H1975, 4.90 in the data set on NCI-H1563 and 7.39 in data set [1].
`CCC(=O)N1CCOc2c1ccc1ncnc(Nc3ccc(F)c(Cl)c3)c21`: the negative logarithm of the IC50 (pIC50) was less than 4.40 in the data set on NCI-H1975, less than 4.40 in the data set on NCI-H1563 and 7.15 in data set [1].
Turning to `FC(F)(F)c1cccc(Nc2ncnc3ccc4c(c23)OCCN4)c1`, the negative-log IC50 (pIC50) in the data set on NCI-H1975 is 5.38; in the data set on NCI-H1563 it was less than 4.40; in data set [1], 6.03.
On to `COCCOc1cc2ncnc(Nc3cccc(Cl)c3)c2c2c1OC(COC)CO2` (stereo not given), for which, in data set [1], the negative-log IC50 (pIC50) was 7.99.
Turning to `CN1CCN(CCC(=O)N2CCOc3c2ccc2ncnc(Nc4ccc(F)c(Cl)c4)c32)CC1`, in data set [2], the CC50 was found to be 1.24 µM. Further, the pIC50 was 5.49 in the data set with NCI-H1975, 4.98 with NCI-H1563 and 7.59 in data set [1].
As to `Brc1cccc(Nc2ncnc3ccc4c(c23)OCCN4)c1`, the pIC50 is 4.81 with NCI-H1975, greater than 5.90 with NCI-H1563 and 6.92 in data set [1].
As for `CN1CCN(CCC(=O)N2CCOc3c2ccc2ncnc(Nc4cccc(C(F)(F)F)c4)c32)CC1`, the pIC50 in the data set on NCI-H1975 was 5.36; in the data set with NCI-H1563 it was 4.67; in data set [1], 6.83.
For the compound `C#Cc1cccc(Nc2ncnc3cc(OCCOC)c(OCCOC)cc23)c1` [ERLOTINIB], in data set [2], the CC50 is 1.32 µM. For the same compound, the negative logarithm of the IC50 (pIC50) in the data set with NCI-H1975 is 5.33; in the data set on NCI-H1563, 5.09.
